Source: patent publication US20140155384A1, “COMPOUNDS AND METHODS OF TREATING DIABETES” (Medivation Technologies, Inc., priority 2011, published 2014)

What was measured:
[1] = target: T1, rat adrenergic α1B receptor (Rattus norvegicus, UniProt P15823); experiment: Radioligand binding, adrenergic α1B receptor ([3H]Prazosin); conditions: 0.1 μM compound, Wistar rat liver, read-out: Percentage inhibition of ligand binding, Adrenergic α1B
T1 construct: rat adrenergic α1B receptor obtained from Wistar Rat liver; from tissue; host or cells: Wistar rat liver
T1 sequence (P15823 1-515): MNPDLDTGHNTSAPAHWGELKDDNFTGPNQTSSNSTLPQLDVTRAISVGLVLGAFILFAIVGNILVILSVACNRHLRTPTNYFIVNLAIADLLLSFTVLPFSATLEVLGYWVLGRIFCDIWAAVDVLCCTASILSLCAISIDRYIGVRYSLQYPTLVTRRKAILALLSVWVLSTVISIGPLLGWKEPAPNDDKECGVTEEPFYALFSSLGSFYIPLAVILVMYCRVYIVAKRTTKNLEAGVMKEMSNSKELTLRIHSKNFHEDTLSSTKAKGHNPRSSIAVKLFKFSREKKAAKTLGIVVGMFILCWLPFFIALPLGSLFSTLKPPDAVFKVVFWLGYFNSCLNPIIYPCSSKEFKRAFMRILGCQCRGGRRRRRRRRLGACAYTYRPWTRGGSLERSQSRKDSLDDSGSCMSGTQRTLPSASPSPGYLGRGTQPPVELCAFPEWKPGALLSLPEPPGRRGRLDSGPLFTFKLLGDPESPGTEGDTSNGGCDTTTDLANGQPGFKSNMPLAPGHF
Outline: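 Wistar rat liver α1B receptor preparation incubated with 0.25 nM [3H]prazosin and compound for 60 min at 25° C in 50 mM Tris-HCl pH 7.4, 0.5 mM EDTA; nonspecific binding defined with 10 μM phentolamine.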

[2] = target: T2, human recombinant adrenergic α1D receptor (Homo sapiens, UniProt P25100); experiment: Radioligand binding, adrenergic α1D receptor ([3H]Prazosin); conditions: 0.1 μM compound; HEK-293 cells; 0.6 nM [3H]Prazosin; read-out: Percentage inhibition of ligand binding, Adrenergic α1D
T2 construct: expressed in transfected cells; host or cells: HEK-293
T2 sequence (P25100 1-572): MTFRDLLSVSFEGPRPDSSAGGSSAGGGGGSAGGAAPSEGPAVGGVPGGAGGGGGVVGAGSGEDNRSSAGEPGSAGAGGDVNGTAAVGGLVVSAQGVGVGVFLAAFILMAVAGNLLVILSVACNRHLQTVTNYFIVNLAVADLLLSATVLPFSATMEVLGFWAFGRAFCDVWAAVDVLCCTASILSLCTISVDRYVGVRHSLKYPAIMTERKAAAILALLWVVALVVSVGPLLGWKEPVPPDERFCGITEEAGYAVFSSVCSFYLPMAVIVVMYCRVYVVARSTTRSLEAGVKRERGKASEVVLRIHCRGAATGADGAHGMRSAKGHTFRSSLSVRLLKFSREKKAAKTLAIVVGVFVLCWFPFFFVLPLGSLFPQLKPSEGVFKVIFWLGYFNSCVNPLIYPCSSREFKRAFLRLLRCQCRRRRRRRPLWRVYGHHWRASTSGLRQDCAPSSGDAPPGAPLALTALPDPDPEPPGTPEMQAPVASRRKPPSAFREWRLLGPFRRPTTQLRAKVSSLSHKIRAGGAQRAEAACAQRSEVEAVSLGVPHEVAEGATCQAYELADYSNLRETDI
Description: Compounds were incubated with 0.6 nM [3H]Prazosin for 60 min at 25° C. Non-specific binding was estimated in the presence of 10 μM phentolamine. Receptor proteins were filtered and washed, the filters were then counted to determine [3H]Prazosin specifically bound. Compounds were screened at 1 μM or lower, using 1% DMSO as vehicle. Biochemical assay results are presented as the percent inhibition of specific binding in Table 2.

[3] = target: T3, human recombinant adrenergic α2A receptor (Homo sapiens, UniProt P08913); experiment: Radioligand binding, adrenergic α2A receptor ([3H]MK-912); conditions: 0.1 μM compound; Sf9 cells; 1 nM [3H]MK-912; read-out: Percentage inhibition of ligand binding, Adrenergic α2A
T3 construct: expressed in transfected cells; host or cells: insect Sf9 cells
T3 sequence (P08913 1-465): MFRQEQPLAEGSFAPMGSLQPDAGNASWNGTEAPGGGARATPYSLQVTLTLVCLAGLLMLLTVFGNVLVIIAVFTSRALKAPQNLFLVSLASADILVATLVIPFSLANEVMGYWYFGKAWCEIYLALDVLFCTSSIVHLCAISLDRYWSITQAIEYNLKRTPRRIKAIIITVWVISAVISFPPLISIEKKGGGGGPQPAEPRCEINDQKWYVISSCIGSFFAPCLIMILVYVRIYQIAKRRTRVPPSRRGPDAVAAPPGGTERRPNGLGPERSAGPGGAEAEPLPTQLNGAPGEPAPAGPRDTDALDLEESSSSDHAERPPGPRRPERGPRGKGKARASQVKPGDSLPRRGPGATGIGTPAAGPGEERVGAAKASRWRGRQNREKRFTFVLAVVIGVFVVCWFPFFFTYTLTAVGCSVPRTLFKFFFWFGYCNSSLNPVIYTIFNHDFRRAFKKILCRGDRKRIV
Outline: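 Percent inhibition of specific [3H]MK-912 (1 nM) binding measured by filtration counting, compounds tested at ≤1 μM in 1% DMSO. Receptor: human α2A from Sf9 cells; incubation 60 min, 25 °C, pH 7.4; 10 μM WB-4101 defined nonspecific binding.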

[4] = target: T4, human recombinant adrenergic α2B receptor (Homo sapiens, UniProt P18089); experiment: Radioligand binding, adrenergic α2B receptor ([3H]Rauwolscine); conditions: 0.1 μM compound, CHO-K1 cells, read-out: Percentage inhibition of ligand binding, Adrenergic α2B
T4 construct: expressed in transfected cells; host or cells: CHO-K1
T4 sequence (P18089 1-450): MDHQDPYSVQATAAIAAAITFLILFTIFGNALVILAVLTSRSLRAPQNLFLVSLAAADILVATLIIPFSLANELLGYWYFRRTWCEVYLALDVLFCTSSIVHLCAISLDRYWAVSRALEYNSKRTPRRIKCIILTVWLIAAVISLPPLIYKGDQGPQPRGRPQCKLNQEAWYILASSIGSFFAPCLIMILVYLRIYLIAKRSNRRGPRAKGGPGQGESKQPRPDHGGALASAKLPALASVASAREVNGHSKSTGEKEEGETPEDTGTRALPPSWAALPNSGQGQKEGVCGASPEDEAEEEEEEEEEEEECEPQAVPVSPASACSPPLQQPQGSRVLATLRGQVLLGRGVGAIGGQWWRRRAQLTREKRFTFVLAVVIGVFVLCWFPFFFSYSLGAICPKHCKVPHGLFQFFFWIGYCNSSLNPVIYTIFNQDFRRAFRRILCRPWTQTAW
Outline: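 Percent inhibition of specific [3H]Rauwolscine (2.5 nM) binding, compounds at ≤1 μM, 1% DMSO vehicle, 10 μM prazosin defining nonspecific. Receptor: human α2B expressed in CHO-K1 cells, 60 min incubation at 25 °C in Tris-HCl pH 7.4 buffer (MgCl2, EDTA, BSA); filtered, washed, counted.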

Row | inhibition at 0.1 µM [1] | inhibition at 0.1 µM [2] | inhibition at 0.1 µM [3] | inhibition at 0.1 µM [4] | SMILES
1 | 15% | 6% | 15% | 45% | Cc1ccc2c(c1)c1c(n2-c2ccc3c(c2)CCN(C=O)C3)CCN(C)C1 [Compound No. 77, 6-(2,8-dimethyl-1,2,3,4-tetrahydro-pyrido[4,3-b]indol-5-yl)-3,4-dihydro-1H-isoquinoline-2-carbaldehyde]
2 | 8% | 21% | 63% | 86% | CNC(=O)c1cc(-n2c3c(c4cc(C)ccc42)CN(C)CC3)cs1 [Compound No. 78]
3 | 9% | 23% | 12% | 27% | Cc1ccc2c(c1)c1c(n2-c2ccccc2-c2ccc(O)nc2)CCN(C)C1 [Compound No. 80, 5-(2-(2,8-dimethyl-3,4-dihydro-1H-pyrido[4,3-b]indol-5(2H)-yl)phenyl)pyridin-2-ol]
4 | 37% | 36% | 88% | 95% | Cc1ccc2c(c1)c1c(n2-c2ccccc2-c2ccc(C)s2)CCN(C)C1 [Compound No. 81, 2,8-dimethyl-5-(2-(5-methylthiophen-2-yl)phenyl)-2,3,4,5-tetrahydro-1H-pyrido[4,3-b]indole]
5 | 14% | 14% | 30% | 21% | Cc1ccc2c(c1)c1c(n2-c2ccccc2-c2c(C)noc2C)CCN(C)C1 [Compound No. 82, 4-(2-(2,8-dimethyl-3,4-dihydro-1H-pyrido[4,3-b]indol-5(2H)-yl)phenyl)-3,5-dimethylisoxazole]
6 | 18% | 64% | 20% | 71% | CC(=O)Nc1ccc(-c2ccccc2-n2c3c(c4cc(C)ccc42)CN(C)CC3)cn1 [Compound No. 83, N-(5-(2-(2,8-dimethyl-3,4-dihydro-1H-pyrido[4,3-b]indol-5(2H)-yl)phenyl)pyridin-2-yl)acetamide]
7 | 54% | 58% | 68% | 89% | Cc1ccc2c(c1)c1c(n2-c2ccccc2-c2ccc(F)nc2)CCN(C)C1 [Compound No. 84, 5-(2-(6-fluoropyridin-3-yl)phenyl)-2,8-dimethyl-2,3,4,5-tetrahydro-1H-pyrido[4,3-b]indole]
8 | 26% | 22% | 33% | 67% | Cc1ccc2c(c1)c1c(n2-c2ccccc2-c2cnn(C)c2)CCN(C)C1 [Compound No. 86, 2,8-dimethyl-5-(2-(1-methyl-1H-pyrazol-4-yl)phenyl)-2,3,4,5-tetrahydro-1H-pyrido[4,3-b]indole]
9 | 13% | 16% | 30% | 18% | Cc1ccc2c(c1)c1c(n2-c2ccccc2-c2cncc3ccccc23)CCN(C)C1 [Compound No. 87, 5-(2-(isoquinolin-4-yl)phenyl)-2,8-dimethyl-2,3,4,5-tetrahydro-1H-pyrido[4,3-b]indole]
10 | 36% | 20% | 15% | 80% | Cc1ccc2c(c1)c1c(n2-c2cnc3ccccc3c2)CCN(C)C1 [Compound No. 88, 2,8-dimethyl-5-quinolin-3-yl-2,3,4,5-tetrahydro-1H-pyrido[4,3-b]indole]
11 | 57% | 50% | 85% | 90% | Cc1ccc2c(c1)c1c(n2-c2ccccc2-c2sccc2C)CCN(C)C1 [Compound No. 102, 2,8-dimethyl-5-(2-(3-methylthiophen-2-yl)phenyl)-2,3,4,5-tetrahydro-1H-pyrido[4,3-b]indole]
12 | 41% | 62% | 98% | 97% | Cc1ccc2c(c1)c1c(n2-c2ccccc2-c2cc3ccccc3s2)CCN(C)C1 [Compound No. 103, 5-(2-(benzo[b]thiophen-2-yl)phenyl)-2,8-dimethyl-2,3,4,5-tetrahydro-1H-pyrido[4,3-b]indole]
13 | 71% | 65% | 79% | 84% | Cc1ccc2c(c1)c1c(n2-c2ccccc2-c2cccc3[nH]ncc23)CCN(C)C1 [Compound No. 105, 5-(2-(1H-indazol-4-yl)phenyl)-2,8-dimethyl-2,3,4,5-tetrahydro-1H-pyrido[4,3-b]indole]
14 | 0% | 3% | 75% | 28% | Cc1ccc2c(c1)c1c(n2-c2cccc(-c3ccc(S(C)(=O)=O)cc3)c2)CCN(C)C1 [Compound No. 131, 2,8-dimethyl-5-(4′-(methylsulfonyl)biphenyl-3-yl)-2,3,4,5-tetrahydro-1H-pyrido[4,3-b]indole]
15 | 33% | 28% | 17% | 69% | Cc1ccc2c(c1)c1c(n2-c2ccc(-c3ccncc3)cn2)CCN(C)C1 [Compound No. 132, 5-(3,4′-bipyridin-6-yl)-2,8-dimethyl-2,3,4,5-tetrahydro-1H-pyrido[4,3-b]indole]
16 | 63% | 53% | 31% | 77% | Cc1ccc2c(c1)c1c(n2-c2ccc(-c3cccnc3)cn2)CCN(C)C1 [Compound No. 133, 5-(3,3′-bipyridin-6-yl)-2,8-dimethyl-2,3,4,5-tetrahydro-1H-pyrido[4,3-b]indole]
